The source of these data is US20250134792A1, “COMPOSITIONS AND METHODS FOR TREATING SKIN” (L'Oreal, priority 2023, published 2025).

Assay [1] has as its system normal human epidermal keratinocytes (NHEK). The assay is described as follows: Proliferation: KI67 staining of NHEKs. Type of assay: cell-based. Particulars: proxylane 0.005%, 0.017%, 0.05%; niacinamide 0.0012%, 0.004%, 0.012%; alone or in combination; FIG. 3.
Text: Surgical skin samples were taken from adults and subjected to the 0.25% trypsin dermis/epidermis separation method described in Rheinwald to obtain suspensions of normal human epidermal keratinocytes (NHEK) and dermal fibroblasts. […] The NHEK cell cultures were initiated using the 3T3 feeder-layer technique described in Rheinwald J. G., Green H.: Epidermal growth factor and the multiplication of cultured human epidermal keratinocytes.
Keratinocytes were stained against KI67 and expression was quantified.
For assay [2], the system named is Normal Human Epidermal Melanocytes-Dark Pigment. The assay is described as follows: PGE-2 induced inflammation and melanin synthesis. Particulars: 30 nM PGE2 stimulated melanocytes; 10 mM (0.12%) niacinamide, proxylane (0.19%); 10 days; FIG. 10. The class given is cell-based.
Experimental: Normal Human Epidermal Melanocytes-Dark Pigment (Lot 1981687, Passage 3, ThermoFisher, Waltham, MA) were seeded in 6-well plates at a density of 100,000 cells per well. Cells were grown in culture medium supplemented with Gibo Human Melanocyte Growth Supplement-2 (ThermoFisher, Waltham, MA). […] Following the 10 days, cells were trypsinized and the melanin was isolated using NaOH. A standard curve using commercially available melanin was used to calculate the average cellular melanin content using the recorded optical density of the isolated melanin using a microplate reader. Average cellular melanin content was normalized to total protein content.
For the next assay, the target named is T1, neutrophil elastase (Homo sapiens, UniProt P08246).
T1 sequence (P08246 30-267): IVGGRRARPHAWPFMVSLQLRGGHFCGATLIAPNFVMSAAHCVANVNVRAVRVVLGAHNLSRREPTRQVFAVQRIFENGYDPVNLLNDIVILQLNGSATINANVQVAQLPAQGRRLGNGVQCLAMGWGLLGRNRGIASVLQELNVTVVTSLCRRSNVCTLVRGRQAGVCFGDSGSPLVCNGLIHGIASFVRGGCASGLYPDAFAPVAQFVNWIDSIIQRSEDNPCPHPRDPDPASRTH
Particulars: alone and in combination; 37° C., fluorescence slope over thirty minutes; FIG. 5.

On to `NC(=O)c1cccnc1` [vitamin B3, niacinamide], for which, in assay [1], the “cell proliferation of keratinocytes (KI67 expression)” value is “capable of stimulating”. Further, the “melanin production (average cellular melanin content normalized to total protein)” value in assay [2] is “significantly decreases”. Further, at neutrophil elastase, the elastase activity result is listed as “inhibit”.
